From patent US20240277705A1, “DOSAGE REGIMENS FOR ECUBECTEDIN” (PHARMA MAR S.A., priority 2021, published 2024)

Tests used:
[1] = tested on: Caki-1 (kidney clear cell carcinoma); assay: MTT cell viability assay, Caki-1; type: cell-based; conditions: Homo sapiens, CAKI-1, 72 h; read-out: GI50, M (geometric mean, N = 3)
Excerpt: Cell lines and cell culture: The following human cancer cell lines have been used in this example (the collection code and the tissue of origin are shown in brackets): • RXF 393 (NCI) (renal carcinoma) • Caki-1 (ATCC HTB-46) (kidney clear cell carcinoma)
Cell lines were obtained from the American Type Culture Collection (ATCC) or the National Cancer Institute (NCI). Cells were maintained in the appropriate culture medium, namely: • RPMI for RXF 393 • McCoy's 5A for Caki-1
All media were supplemented with 10% FBS, 2 mM L-Glutamine and 100 units/mL of penicillin-streptomycin.
Cell viability assay: To assess the antiproliferative activity of the compounds a colorimetric assay based on 3-(4,5-Dimethylthiazol-2-yl)-2,5-diphenyltetrazolium bromide (MTT) reduction was used. […] Culture medium was then removed and 100 μL of neat DMSO added to each well to dissolve the formazan product into a coloured solution whose absorbance at 540 nm was finally measured in a PolarStar Omega microplate multilabel reader (BMG Labtech, Ortenberg, Germany). […]
GI50 is finally used as reference value. […] To define a significant (ca. 70%) confidence interval for the geometric mean, its value must be multiplied and divided by the corresponding geometric standard deviation (GSD) which was also calculated. […]

[2] = Phase I dose-escalating study, pharmacokinetics; type: in vivo
Excerpt: Open-label, dose-escalating, phase I trial of PM14 administered as a 3-hour infusion i.v. every 3 weeks (q3wk) in human patients (pts) with advanced solid tumors, adequate organ function and ECOG PS score of 0-1. Two schedules were explored: Schedule A (Day 1 [D1], Day 8 [D8]) and Schedule B (D1).
Secondary Endpoints • Safety: patients will be evaluable for safety if they have received at least one partial infusion of PM14. AEs will be graded according to the NCI-CTCAE v.4. Additionally, treatment-related discontinuations and treatment compliance (dose reduction, skipped doses and/or treatment delays due to AEs), will be described. • Pharmacokinetics: PK analyses will be evaluated in plasma and urine by standard non-compartmental analysis (compartmental modeling may be performed if appropriate). Plasma samples for PM14 PK analysis will be obtained in Cycle 1 from all patients, and also in Cycle 2 from patients treated during Step D of the CRM. In addition, the urine produced during Day 1 of Cycle 1 and Cycle 2 will be collected from patients treated during Step D of the CRM. • Pharmacogenetics: the presence or absence of PGt polymorphisms in genes relevant for PM14 disposition (distribution, metabolism and excretion) from a single blood sample collected at any time during the trial (but preferably at the same time as the pre-treatment PK sample on Day 1 of Cycle 1) will be assessed to explain individual variability in main PK parameters. • Pharmacogenomics: this exploratory analysis will be performed in those patients who sign the Informed Consent Form (ICF) for the PGx study. mRNA or protein expression levels of factors involved in DNA repair mechanisms, or related to the mechanism of action of PM14, will be evaluated from available tumor tissue samples obtained at diagnosis or relapse and in cell-free ctDNA. Their mutational status might also be analyzed, if relevant. Their correlation with the clinical response and outcome after treatment will be assessed. • Efficacy: patients will be evaluable for efficacy if they receive at least one complete infusion of PM14 and have at least one clinical or radiological tumor assessment as per RECIST v.1.1 or serum markers, or if they are considered to have failed treatment. Treatment failure will be defined as clinical deterioration, death due to PD or treatment discontinuation due to any treatment-related toxicity before any appropriate tumor assessments have been performed.

Structure (SMILES): COc1c(C)cc2c(c1O)[C@@H]1[C@@H]3[C@@H]4SC[C@]5(N[C@H](CO)Cc6c5[nH]c5ccccc65)C(=O)OC[C@@H](c5c6c(c(C)c(OC(C)=O)c54)OCO6)N3[C@@H](O)[C@H](C2)N1C [PM14, ECUBECTEDIN]
- GI50 [1]: 0.611 nM
- Vd ([2]; human, in vivo): 128 L
- clearance ([2]; human, in vivo): 98.3 mL/min
- half-life ([2]; human, in vivo, half-life): 16 h
- half-life ([2]; human, in vivo, terminal half-life, median (range)): 15.9 h
- administered dose recovered in urine ([2]; patients): Less than 1.6%
- distribution into peripheral tissues ([2]; patients): moderate
- hepatic extraction ratio ([2]; patients): low
- pharmacokinetics, dose linearity ([2]; tested doses 0.25-5.6 mg/rn^2): Linear pharmacokinetics
